BigSolDB 2.1

CC(=O)c1c(C)c2cnc(Nc3ccc(N4CCNCC4)cn3)nc2n(C2CCCC2)c1=O
solubility (mole fraction)
Conditions | 293.15 K | 298.15 K | 303.15 K | 308.15 K | 313.15 K | 318.15 K | 323.15 K | 328.15 K | 333.15 K
in DMF | 6.17e-05 | 8.25e-05 | 0.000103 | 0.000131 | 0.000166 | 0.000202 | 0.000246 | 0.000293 | 0.000351
in DMSO | 6.57e-05 | 7.82e-05 | 9.62e-05 | 0.00012 | 0.000146 | 0.000172 | 0.000198 | 0.000246 | 0.000302
in THF | 7.14e-05 | 9.81e-05 | 0.000143 | 0.000189 | 0.00025 | 0.000329 | 0.000417 | 0.000536 | 0.000696
in acetone | 5.73e-05 | 7.32e-05 | 9.12e-05 | 0.000111 | 0.000138 | 0.000165 | 0.000199 | 0.000238 | 0.000278
in anisole | 1.32e-05 | 1.41e-05 | 1.51e-05 | 1.67e-05 | 1.79e-05 | 1.87e-05 | 1.98e-05 | 2.02e-05 | 2.17e-05
in chlorobenzene | 3.96e-05 | 5.28e-05 | 6.9e-05 | 8.91e-05 | 0.000116 | 0.000148 | 0.000189 | 0.000239 | 0.000302
in ethanol | 2.11e-05 | 2.66e-05 | 3.03e-05 | 3.61e-05 | 4.12e-05 | 4.81e-05 | 5.6e-05 | 6.41e-05 | 7.27e-05
in ethyl acetate | 1.44e-05 | 1.6e-05 | 2.06e-05 | 2.4e-05 | 3.08e-05 | 3.63e-05 | 4.42e-05 | 5.13e-05 | 5.98e-05
in m-xylene | 3.74e-05 | 4.12e-05 | 5.23e-05 | 6.44e-05 | 8.24e-05 | 9.8e-05 | 0.000119 | 0.000147 | 0.000171
in methanol | 1.1e-05 | 1.43e-05 | 1.97e-05 | 2.54e-05 | 3.43e-05 | 4.52e-05 | 5.71e-05 | 7.15e-05 | 9.01e-05
in o-xylene | 3.21e-05 | 3.62e-05 | 4.29e-05 | 4.88e-05 | 5.57e-05 | 6.38e-05 | 7.18e-05 | 8.16e-05 | 9.67e-05
in pyridine | 9.37e-05 | 0.000111 | 0.000127 | 0.000142 | 0.000159 | 0.000177 | 0.000196 | 0.000215 | 0.000236
in toluene | 4.72e-05 | 5.67e-05 | 6.78e-05 | 8.01e-05 | 9.44e-05 | 0.00011 | 0.000129 | 0.000152 | 0.000178
in water | 9.4e-06 | 1.18e-05 | 1.35e-05 | 1.7e-05 | 2.11e-05 | 2.52e-05 | 3.01e-05 | 3.63e-05 | 4.34e-05
